These results are taken from US20190106460A1, “BINDING INHIBITORS OF THE BETA. TRANSDUCIN REPEAT-CONTAINING PROTEIN” (priority 2011, published 2019).

As a reminder, the Ki is a measure of affinity in units of concentration, obtained from inhibition or displacement.

Starred links: 1 amine or outer side, 2 acyl side, 3 side chain; linkers in the order of their positions; H or OH if unused. Non-standard residues stand in square brackets, D forms with d. Residues, ends and D or L forms follow the SMILES beside them. No end group written: not given here. *: point of attachment. Phe(4-NO2) = N[C@@H](Cc1ccc([N+](=O)[O-])cc1)C(=O)O; Benzoyl(2-COOH) = O=C(O)c1ccccc1C(=O)*; Phe(3-F) = N[C@@H](Cc1cccc(F)c1)C(=O)O; Phe(4-F) = N[C@@H](Cc1ccc(F)cc1)C(=O)O; 1Nal = N[C@@H](Cc1cccc2ccccc12)C(=O)O; Phe(2-F) = N[C@@H](Cc1ccccc1F)C(=O)O; pS = N[C@@H](COP(=O)(O)O)C(=O)O; X4 = O=S(=O)(c1ccc(Cl)cc1Cl)*; Suc = O=C(CCC(=O)[*:2])[*:1]; X6 = O=C(O)C1CCC(C(=O)*)CC1; MeOSuc = COC(=O)CCC(=O)*

Sequence of βTrCP (Q9Y297 whole entry): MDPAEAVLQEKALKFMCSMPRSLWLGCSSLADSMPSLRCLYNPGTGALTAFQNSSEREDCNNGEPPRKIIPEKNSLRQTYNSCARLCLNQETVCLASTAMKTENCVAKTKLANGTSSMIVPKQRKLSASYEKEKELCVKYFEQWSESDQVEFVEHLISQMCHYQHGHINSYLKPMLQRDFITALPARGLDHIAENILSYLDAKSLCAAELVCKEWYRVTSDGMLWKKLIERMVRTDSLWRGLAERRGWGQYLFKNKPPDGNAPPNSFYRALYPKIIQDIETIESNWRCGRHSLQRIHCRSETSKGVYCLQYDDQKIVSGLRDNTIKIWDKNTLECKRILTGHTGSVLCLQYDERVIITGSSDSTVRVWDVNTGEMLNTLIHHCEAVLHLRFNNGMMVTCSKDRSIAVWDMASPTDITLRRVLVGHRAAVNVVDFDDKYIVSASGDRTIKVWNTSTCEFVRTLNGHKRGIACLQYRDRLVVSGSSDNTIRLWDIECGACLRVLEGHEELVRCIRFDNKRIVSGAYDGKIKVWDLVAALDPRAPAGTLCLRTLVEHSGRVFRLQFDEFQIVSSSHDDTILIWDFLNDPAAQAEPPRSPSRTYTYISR
Sequence of βTrCP (P63208 whole entry partner): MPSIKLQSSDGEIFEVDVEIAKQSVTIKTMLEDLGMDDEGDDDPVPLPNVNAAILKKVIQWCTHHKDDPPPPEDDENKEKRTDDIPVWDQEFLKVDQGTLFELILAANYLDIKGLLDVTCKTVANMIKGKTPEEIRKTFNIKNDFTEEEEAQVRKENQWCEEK

The first assay concerns the target βTrCP (Homo sapiens, UniProt Q9Y297). In words: Fluorescence polarisation (FP) binding assay with fluorescein-tagged IκB peptide. Particulars: FP Assay IC50/μM, Tables 1, 3, 7, 8; 10 nM fluorescein-tagged IκB peptide. In general terms: Fluorescence polarisation rises when a labelled molecule tumbles more slowly, as on binding a larger partner.
Consider H-DEGFFE-NH2 [DEGFFE-NH2], for which the IC50 stood at 43.6 µM.

The assay is the same for the next values; noted with them: FP dose-response.
On to `NC(=O)[C@H](CCC(=O)O)NC(=O)[C@H](Cc1c[nH]c2ccccc12)NC(=O)[C@H](Cc1cccc(F)c1)NC(=O)CNC(=O)[C@H](CCC(=O)O)NC(=O)[C@@H](CC(=O)O)NS(=O)(=O)c1ccc(Cl)cc1Cl` [UBP048, 2,4-(Cl)2-PhSO2-dEGF(3F)WE-NH2] (X4-[dD]EG[Phe(3-F)]WE-NH2), for which the Ki came out at 27 nM.

Staying with this assay, now noted: Tables 1, 3, 7, 8; 10 nM fluorescein-tagged IκB peptide; read-out: FP Assay IC50/μM.
Take `COC(=O)CC[C@H](NC(=O)[C@H](Cc1ccc(OC)cc1)NC(=O)[C@H](Cc1ccccc1)NC(=O)CNC(=O)[C@H](CCC(=O)O)NC(=O)CCC(=O)O)C(N)=O` [Suc-EGF-Y(Me)-E(OMe)-NH2] (Suc-EGFY(Me)E(OMe)-NH2): the IC50 is 71 µM. On the same count and under the same terms, then EAGIFE-NH2 [EAGIFE-NH2], with greater than 100 µM; and `NC(=O)[C@H](Cc1ccc(F)cc1)NC(=O)[C@H](Cc1ccccc1)NC(=O)CNC(=O)[C@H](CCC(=O)O)NC(=O)CCC(=O)O` [Suc-EGF-F(4F)-NH2] (Suc-EGF[Phe(4-F)]-NH2), with greater than 100 µM.

Take ADAGIHS-NH2 [ADAGIHS-NH2]: the IC50 is greater than 100 µM. On the same count and under the same terms, then `CC[C@H](C)[C@H](NC(=O)CNC(=O)[C@H](COP(=O)(O)O)NC(=O)[C@H](CC(=O)O)NC(=O)[C@@H](N)C(C)C)C(=O)N[C@@H](Cc1c[nH]cn1)C(=O)N[C@@H](CO)C(N)=O` [VD-pS-GIHS-NH2] (H-VD[pS]GIHS-NH2), with greater than 100 µM. In the case of `CC[C@H](C)[C@H](NC(=O)CNC(=O)[C@H](C)NC(=O)CCC(=O)O)C(=O)N[C@@H](Cc1ccccc1)C(=O)N[C@@H](CCC(=O)O)C(N)=O` [Suc-AGIFE-NH2] (Suc-AGIFE-NH2), the IC50 was greater than 100 µM. The same measure, in the same setting: then `CC[C@H](C)[C@H](NC(=O)CNC(=O)[C@H](COP(=O)(O)O)NC(=O)[C@@H](N)CC(=O)O)C(=O)N[C@@H](Cc1c[nH]cn1)C(=O)N[C@@H](CO)C(N)=O` [D-pS-GIHS-NH2] (H-D[pS]GIHS-NH2), with greater than 100 µM; and `NC(=O)[C@H](CCC(=O)O)NC(=O)[C@H](Cc1cccc2ccccc12)NC(=O)[C@H](Cc1ccc(O)cc1)NC(=O)CNC(=O)[C@@H](N)CCC(=O)O` [EGY-1Nal-E-NH2] (H-EGY[1Nal]E-NH2), with greater than 100 µM. Still for that read-out and setting: then DAGFFE-NH2 [DAGFFE-NH2], with greater than 100 µM. Same read-out and setting: then `NC(=O)[C@H](Cc1ccc([N+](=O)[O-])cc1)NC(=O)[C@H](Cc1ccccc1)NC(=O)CNC(=O)[C@H](CCC(=O)O)NC(=O)CCC(=O)O` [Suc-EGF-F(4NO2)-NH2] (Suc-EGF[Phe(4-NO2)]-NH2), with greater than 100 µM; and `NC(=O)CC[C@H](NC(=O)[C@H](Cc1cccc2ccccc12)NC(=O)[C@H](Cc1cccc(F)c1)NC(=O)CNC(=O)[C@H](CCC(=O)O)NC(=O)CCC(=O)O)C(N)=O` [Suc-EG-F(3F)-1Nal-Q-NH2] (Suc-EG[Phe(3-F)][1Nal]Q-NH2), with 7.22 µM; and `NC(=O)CC[C@H](N)C(=O)NCC(=O)N[C@@H](Cc1cccc(F)c1)C(=O)N[C@@H](Cc1ccc([N+](=O)[O-])cc1)C(=O)N[C@@H](CCC(=O)O)C(N)=O` [QG-F(3F)-F(4NO2)-E-NH2], with greater than 100 µM. Consider `C[C@H](NC(=O)CCC(=O)O)C(=O)NCC(=O)N[C@@H](Cc1cccc(F)c1)C(=O)N[C@@H](Cc1ccc([N+](=O)[O-])cc1)C(=O)N[C@@H](CCC(=O)O)C(N)=O` [Suc-AG-F(3F)-F(4NO2)-E-NH2] (Suc-AG[Phe(3-F)][Phe(4-NO2)]E-NH2), for which the IC50 came out at 8.01 µM.

In the case of `CC[C@H](C)[C@H](NC(=O)CNC(=O)[C@H](CCC(=O)O)NC(=O)CCC(=O)O)C(=O)N[C@@H](Cc1ccccc1)C(=O)N[C@@H](CCC(=O)O)C(N)=O` [Suc-EGIFE-NH2] (Suc-EGIFE-NH2), the IC50 was greater than 100 µM. Still for that read-out and setting: to `NC(=O)[C@H](CCC(=O)O)NC(=O)[C@H](Cc1cccc2ccccc12)NC(=O)[C@H](Cc1cccc(F)c1)NC(=O)CNC(=O)[C@@H](N)CCC(=O)O` [EG-F(3F)-1Nal-E-NH2] (H-EG[Phe(3-F)][1Nal]E-NH2) belongs greater than 100 µM. GDAGIHS-NH2 [GDAGIHS-NH2]: the IC50 is greater than 100 µM.

As to DDASGIHS-NH2 [DDASGIHS-NH2], the IC50 is greater than 100 µM. Turning to `C[C@H](NC(=O)c1ccccc1C(=O)O)C(=O)NCC(=O)N[C@@H](Cc1ccccc1)C(=O)N[C@@H](Cc1ccccc1)C(=O)N[C@@H](CCC(=O)O)C(N)=O` [Phth-AGFFE-NH2] ({Benzoyl(2-COOH)}-AGFFE-NH2), the IC50 was greater than 100 µM. Still for that read-out and setting: to `C[C@H](NC(=O)[C@H](CCC(=O)O)NC(=O)CCC(=O)O)C(=O)N[C@@H](Cc1ccccc1)C(=O)N[C@@H](Cc1ccccc1)C(=O)N[C@@H](CCC(=O)O)C(N)=O` [Suc-EAFFE-NH2] belongs 59.8 µM; to `C[C@H](N)C(=O)NCC(=O)N[C@@H](Cc1cccc(F)c1)C(=O)N[C@@H](Cc1ccc([N+](=O)[O-])cc1)C(=O)N[C@@H](CCC(=O)O)C(N)=O` [AG-F(3F)-F(4NO2)-E-NH2] (H-AG[Phe(3-F)][Phe(4-NO2)]E-NH2), greater than 100 µM; to `NC(=O)[C@H](Cc1cccc(F)c1)NC(=O)[C@H](Cc1ccccc1F)NC(=O)CNC(=O)[C@H](CCC(=O)O)NC(=O)CCC(=O)O` [Suc-EG-F(2F)-F(3F)-NH2] (Suc-EG[Phe(2-F)][Phe(3-F)]-NH2), greater than 100 µM. The same measure, in the same setting: then `CC[C@H](C)[C@H](NC(=O)CNC(=O)[C@H](C)NC(=O)c1ccccc1C(=O)O)C(=O)N[C@@H](Cc1ccccc1)C(=O)N[C@@H](CCC(=O)O)C(N)=O` [Phth-AGIFE-NH2] ({Benzoyl(2-COOH)}-AGIFE-NH2), with greater than 100 µM; and `NC(=O)[C@H](Cc1cccc(F)c1)NC(=O)[C@H](Cc1ccc(O)cc1)NC(=O)CNC(=O)[C@H](CCC(=O)O)NC(=O)CCC(=O)O` [Suc-EGY-F(3F)-NH2] (Suc-EGY[Phe(3-F)]-NH2), with 91 µM. Still for that read-out and setting: to `COC(=O)CCC(=O)N[C@@H](CCC(=O)O)C(=O)NCC(=O)N[C@@H](Cc1cccc(F)c1)C(=O)N[C@@H](Cc1cccc2ccccc12)C(=O)N[C@@H](CCC(=O)O)C(N)=O` [(MeO)Suc-EG-F(3F)-1Nal-E-NH2] (MeOSuc-EG[Phe(3-F)][1Nal]E-NH2) belongs 1.6 µM; to `NC(=O)CC[C@H](NC(=O)CCC(=O)O)C(=O)NCC(=O)N[C@@H](Cc1ccc(O)cc1)C(=O)N[C@@H](Cc1ccccc1)C(=O)N[C@@H](CCC(=O)O)C(N)=O` [Suc-QGYFE-NH2], 10.7 µM. For LDASGIHS-NH2 [LDASGIHS-NH2], the IC50 was greater than 100 µM. As for `C[C@H](NC(=O)[C@@H](N)CCC(=O)O)C(=O)N[C@@H](Cc1cccc(F)c1)C(=O)N[C@@H](Cc1ccc([N+](=O)[O-])cc1)C(=O)N[C@@H](CCC(=O)O)C(N)=O` [EA-F(3F)-F(4NO2)-E-NH2], the IC50 is greater than 100 µM.

For the molecule DAGIFH-NH2 [DAGIFH-NH2], the IC50 is greater than 100 µM. Still for that read-out and setting: to `NC(=O)CC[C@H](NC(=O)CCC(=O)O)C(=O)NCC(=O)N[C@@H](Cc1ccccc1)C(=O)N[C@@H](Cc1ccccc1)C(=O)N[C@@H](CCC(=O)O)C(N)=O` [Suc-QGFFE-NH2] belongs 10 µM.

With `NC(=O)[C@H](CCC(=O)O)NC(=O)[C@H](Cc1ccc([N+](=O)[O-])cc1)NC(=O)[C@H](Cc1ccc(O)cc1)NC(=O)CNC(=O)[C@@H](N)CCC(=O)O` [EGY-F(4NO2)-E-NH2] (H-EGY[Phe(4-NO2)]E-NH2), the IC50 is greater than 100 µM. Still for that read-out and setting: to `NC(=O)[C@H](CCC(=O)O)NC(=O)[C@H](Cc1ccccc1)NC(=O)[C@H](Cc1ccccc1)NC(=O)CNC(=O)[C@H](CCC(=O)O)NC(=O)C1CCC(C(=O)O)CC1` (some centres unmarked) [1,4-Chda-EGFFE-NH2] (X6-EGFFE-NH2) belongs greater than 100 µM; to `NC(=O)[C@H](Cc1ccc([N+](=O)[O-])cc1)NC(=O)[C@H](Cc1cccc(F)c1)NC(=O)CNC(=O)[C@H](CCC(=O)O)NC(=O)CCC(=O)O` [Suc-EG-F(3F)-F(4NO2)-NH2] (Suc-EG[Phe(3-F)][Phe(4-NO2)]-NH2), greater than 100 µM. On the same count and under the same terms, to DAGIHS-NH2 [DAGIHS-NH2] belongs greater than 100 µM; to `COc1ccc(C[C@H](NC(=O)[C@H](Cc2cccc(F)c2)NC(=O)CNC(=O)[C@H](CCC(=O)O)NC(=O)CCC(=O)O)C(=O)N[C@@H](CCC(=O)O)C(N)=O)cc1` [Suc-EG-F(3F)-Y(Me)-E-NH2] (Suc-EG[Phe(3-F)]Y(Me)E-NH2), 1.4 µM. Still for that read-out and setting: to `NC(=O)[C@H](Cc1cccc(F)c1)NC(=O)[C@H](Cc1ccccc1)NC(=O)CNC(=O)[C@H](CCC(=O)O)NC(=O)CCC(=O)O` [Suc-EGF-F(3F)-NH2] (Suc-EGF[Phe(3-F)]-NH2) belongs greater than 100 µM; to `CC[C@H](C)[C@H](NC(=O)CNC(=O)[C@H](CCC(=O)O)NC(=O)[C@H](N)CC(=O)O)C(=O)N[C@@H](Cc1ccccc1)C(=O)N[C@@H](CC(=O)O)C(N)=O` [dEGIFD-NH2] (H-[dD]EGIFD-NH2), greater than 100 µM. VDAGIHS-NH2 [VDAGIHS-NH2]: the IC50 is greater than 100 µM.

On to `CC[C@H](C)[C@H](NC(=O)CNC(=O)[C@H](COP(=O)(O)O)NC(=O)[C@H](CC(=O)O)NC(=O)CN)C(=O)N[C@@H](Cc1c[nH]cn1)C(=O)N[C@@H](CO)C(N)=O` [GD-pS-GIHS-NH2] (H-GD[pS]GIHS-NH2), for which the IC50 was greater than 100 µM.

As for `NC(=O)C[C@H](NC(=O)CNC(=O)[C@H](COP(=O)(O)O)NC(=O)[C@@H](N)CC(=O)O)C(=O)N[C@@H](Cc1ccccc1)C(=O)N[C@@H](CCC(=O)O)C(N)=O` [D-pS-GNFE-NH2] (H-D[pS]GNFE-NH2), the IC50 was greater than 100 µM. In the case of `NC(=O)[C@H](Cc1cccc2ccccc12)NC(=O)[C@H](Cc1ccc([N+](=O)[O-])cc1)NC(=O)CNC(=O)[C@H](CCC(=O)O)NC(=O)CCC(=O)O` [Suc-EG-F(4NO2)-1Nal-NH2] (Suc-EG[Phe(4-NO2)][1Nal]-NH2), the IC50 stood at 14 µM. On to `C[C@H](NC(=O)CCC(=O)O)C(=O)NCC(=O)N[C@@H](Cc1ccccc1)C(=O)N[C@@H](Cc1ccccc1)C(=O)N[C@@H](CCC(=O)O)C(N)=O` [Suc-AGFFE-NH2] (Suc-AGFFE-NH2), for which the IC50 was greater than 100 µM.

On to `CC[C@H](C)[C@H](NC(=O)CNC(=O)[C@H](C)NC(=O)[C@H](N)CC(=O)O)C(=O)N[C@@H](Cc1ccccc1)C(=O)N[C@@H](CC(=O)O)C(N)=O` [dAGIFD-NH2] (H-[dD]AGIFD-NH2), for which the IC50 is greater than 100 µM.
